Assay results taken from ChEMBL document CHEMBL1781972, “Daphnane-type diterpenoids from Trigonostemon howii” (J Nat Prod, 2011).

Test system: HL-60
Assay: Cytotoxicity against human HL60 cells after 72 hrs by MTT method
Type: functional, cell-based
Conditions: HL-60, 72 h

SMILES: C=C(C)[C@@]1(O)[C@@H]2OC3(c4ccccc4)O[C@H]1[C@@H](C)[C@@]1(O3)[C@H]2[C@H](OC(C)=O)[C@@](C)(OC(=O)c2ccccc2)[C@@H](O)[C@@]2(OC(C)=O)[C@H]1C[C@H](C)[C@@H]2OC(C)=O [TRIGOHOWNIN A]
- IC50: 17 µM

SMILES: C=C(C)[C@@]12OC3(c4ccccc4)O[C@@H]1[C@@H]1[C@H](OC(C)=O)[C@@](C)(O)[C@@H](OC(C)=O)[C@@]4(OC(=O)c5ccccc5)[C@@H](C[C@H](C)[C@@H]4OC(C)=O)[C@@]1(O3)[C@H](C)[C@@H]2OC(C)=O [TRIGOHOWNIN D]
- IC50: 9.3 µM
